Several values for one entry are separate records, joined by “and”; a condition that tells them apart may be missing. Equal values may be shown once. ± gives the uncertainty stated by the source. Values belong to the molecule of their own block, whether it stands above or below them.
- viscosity (293.15 K, 101.2 kPa): 0.7298 ± 0.033 mPa·s
- viscosity (298.15 K, 100 kPa): 0.69 ± 0.08 mPa·s
- viscosity (298.15 K, 101 kPa): 0.68 ± 0.006 mPa·s
- viscosity (298.15 K, 101.2 kPa): 0.6819 ± 0.031 mPa·s
- viscosity (303.15 K, 101 kPa): 0.6416 ± 0.0044 mPa·s
- viscosity (303.15 K, 101.2 kPa): 0.6389 ± 0.029 mPa·s
- viscosity (303.15 K, 101.3 kPa): 0.6407 ± 0.0044 mPa·s
- viscosity (303.15 K, 101.33 kPa): 0.639 ± 0.0085 mPa·s
- viscosity (308.15 K, 100 kPa): 0.61 ± 0.07 mPa·s
- viscosity (313.15 K, 100 kPa): 0.568 ± 0.013 mPa·s
- viscosity (313.15 K, 101.2 kPa): 0.5641 ± 0.025 mPa·s
- viscosity (318.15 K, 100 kPa): 0.54 ± 0.07 mPa·s
- viscosity (318.15 K, 101.2 kPa): 0.5314 ± 0.024 mPa·s
SMILES: CC1CCCCC1
- viscosity (293.15 K, 100 kPa): 0.736 ± 0.017 mPa·s (2×) and 0.73 ± 0.09 mPa·s
- viscosity (303.15 K, 100 kPa): 0.65 ± 0.08 mPa·s and 0.639 ± 0.014 mPa·s
- viscosity (323.15 K, 100 kPa): 0.51 ± 0.06 mPa·s and 0.501 ± 0.011 mPa·s

SMILES: Cc1ccccc1[N+](=O)[O-]
- viscosity (298.15 K, 101 kPa): 2.1 ± 0.021 mPa·s
- viscosity (298.15 K, 101.33 kPa): 2.089 ± 0.021 mPa·s
- viscosity (308.15 K, 101.33 kPa): 1.727 ± 0.011 mPa·s
- viscosity (323.15 K, 101.33 kPa): 1.348 ± 0.013 mPa·s

- viscosity (298.16 K, 101 kPa): 5.89 ± 0.05 mPa·s
SMILES: CCNC(C)=O

- viscosity (298.15 K, 100 kPa): 57.4 ± 1.8 mPa·s and 62.81 ± 3.2 mPa·s
- viscosity (308.15 K, 100 kPa): 37.36 ± 2 mPa·s and 40.56 ± 2.1 mPa·s
- viscosity (318.15 K, 100 kPa): 25.8 ± 1.4 mPa·s
SMILES: CCCC[n+]1ccn(C)c1.N#C[S-]

SMILES: CCCCCN
- viscosity (293.15 K, 101.33 kPa): 0.656 ± 0.004 mPa·s
- viscosity (298.15 K, 101.33 kPa): 0.609 ± 0.004 mPa·s
- viscosity (303.15 K, 101 kPa): 0.5809 ± 0.005 mPa·s
- viscosity (303.15 K, 101.33 kPa): 0.563 ± 0.003 mPa·s
- viscosity (308.15 K, 101.33 kPa): 0.523 ± 0.003 mPa·s
- viscosity (313.15 K, 101.33 kPa): 0.484 ± 0.003 mPa·s
- viscosity (318.15 K, 101.33 kPa): 0.457 ± 0.002 mPa·s

- viscosity (298.15 K, 101 kPa): 4.868 ± 0.045 mPa·s
- viscosity (303.15 K, 101.33 kPa): 3.594 ± 0.048 mPa·s
- viscosity (313.15 K, 101.33 kPa): 2.601 ± 0.035 mPa·s
- viscosity (323.15 K, 101.33 kPa): 1.936 ± 0.026 mPa·s
SMILES: CCC(C)CO (stereo not given)

SMILES: CCOC(=O)c1ccccc1
- viscosity (293.15 K, 101.33 kPa): 2.013 ± 0.052 mPa·s and 2.21 ± 0.02 mPa·s
- viscosity (298.15 K, 101.33 kPa): 1.954 ± 0.025 mPa·s and 1.936 ± 0.023 mPa·s
- viscosity (303.15 K, 101.33 kPa): 1.597 ± 0.041 mPa·s and 1.77 ± 0.022 mPa·s and 1.811 ± 0.016 mPa·s
- viscosity (308 K, 101.3 kPa): 1.593 ± 0.16 mPa·s
- viscosity (308.15 K, 101.33 kPa): 1.61 ± 0.021 mPa·s and 1.591 ± 0.019 mPa·s
- viscosity (313 K, 101.3 kPa): 1.446 ± 0.14 mPa·s
- viscosity (313.15 K, 101 kPa): 1.446 ± 0.035 mPa·s and 1.463 ± 0.031 mPa·s and 1.461 ± 0.022 mPa·s
- viscosity (313.15 K, 101.33 kPa): 1.284 ± 0.033 mPa·s and 1.453 ± 0.018 mPa·s
- viscosity (318 K, 101.3 kPa): 1.339 ± 0.13 mPa·s
- viscosity (318.15 K, 101 kPa): 1.339 ± 0.033 mPa·s and 1.35 ± 0.042 mPa·s
- viscosity (318.15 K, 101.33 kPa): 1.332 ± 0.016 mPa·s
- viscosity (323 K, 101.3 kPa): 1.254 ± 0.13 mPa·s
- viscosity (323.15 K, 101 kPa): 1.254 ± 0.031 mPa·s
- viscosity (323.15 K, 101.33 kPa): 1.058 ± 0.027 mPa·s

- viscosity (293.15 K, 101 kPa): 221.3 ± 4.6 mPa·s
- viscosity (298.15 K, 101 kPa): 137.7 ± 2 mPa·s and 137.7 ± 2.1 mPa·s
- viscosity (303.15 K, 101 kPa): 90.07 ± 0.93 mPa·s and 90.07 ± 1 mPa·s
- viscosity (313.15 K, 101 kPa): 43.68 ± 0.34 mPa·s and 43.68 ± 0.4 mPa·s
- viscosity (318.15 K, 101 kPa): 32.1 ± 0.25 mPa·s and 32.1 ± 0.29 mPa·s
SMILES: CCOC(=O)[C@@H](O)[C@H](O)C(=O)OCC
- viscosity (308.15 K, 101 kPa): 61.58 ± 0.47 mPa·s and 61.58 ± 0.56 mPa·s
- viscosity (323.15 K, 101 kPa): 24.37 ± 0.19 mPa·s and 24.37 ± 0.22 mPa·s

SMILES: CCS(=O)CC
- viscosity (298.15 K, 101 kPa): 2.32 ± 0.05 mPa·s
- viscosity (303.15 K, 101 kPa): 2.1 ± 0.04 mPa·s
- viscosity (308.15 K, 101 kPa): 1.88 ± 0.04 mPa·s
- viscosity (313.15 K, 101 kPa): 1.74 ± 0.04 mPa·s
- viscosity (318.15 K, 101 kPa): 1.59 ± 0.03 mPa·s
- viscosity (323.15 K, 101 kPa): 1.31 ± 0.03 mPa·s

- viscosity (298.15 K, 101 kPa): 109.5 ± 23 mPa·s
- viscosity (308.15 K, 101 kPa): 70.36 ± 6.5 mPa·s
- viscosity (318.15 K, 101 kPa): 47.79 ± 3 mPa·s
SMILES: CCCC[N+]1(C)CCCC1.N#C[S-]

- viscosity (293.15 K, 102 kPa): 1.17 ± 0.02 mPa·s
- viscosity (303.15 K, 102 kPa): 1 ± 0.02 mPa·s
- viscosity (313.15 K, 102 kPa): 0.871 ± 0.021 mPa·s
- viscosity (323.15 K, 102 kPa): 0.765 ± 0.021 mPa·s
SMILES: CC(C)CC1CCCCC1

- viscosity (323.15 K, 100 kPa): 0.835 ± 0.01 mPa·s
SMILES: CCCCC1CCCCC1

SMILES: CCCCCl
- viscosity (298.15 K, 101 kPa): 0.428 mPa·s
- viscosity (318.15 K, 101 kPa): 0.356 mPa·s
- viscosity (323.15 K, 101 kPa): 0.34 mPa·s

SMILES: c1cscn1
- viscosity (298.15 K, 101 kPa): 1.008 ± 0.027 mPa·s

SMILES: CCCCC[P+](CC)(CC)CC.O=S(=O)([N-]S(=O)(=O)C(F)(F)F)C(F)(F)F
- viscosity (298.15 K, 101.3 kPa): 87.5 ± 18 mPa·s
- viscosity (303.15 K, 101.3 kPa): 68.8 ± 14 mPa·s
- viscosity (308.15 K, 101.3 kPa): 54.9 ± 11 mPa·s
- viscosity (318.15 K, 101.3 kPa): 36.6 ± 7.3 mPa·s
- viscosity (323.15 K, 101.3 kPa): 30.5 ± 6.1 mPa·s

SMILES: CNS(C)(=O)=O
- viscosity (303.15 K, 101.33 kPa): 8.242 ± 0.21 mPa·s

- viscosity (293.15 K, 100 kPa): 210 ± 10 mPa·s
- viscosity (298.15 K, 100 kPa): 143 ± 5.6 mPa·s
- viscosity (303.15 K, 100 kPa): 102.5 ± 3.8 mPa·s
- viscosity (308.15 K, 100 kPa): 72 ± 3.2 mPa·s
- viscosity (313.15 K, 100 kPa): 55 ± 3.1 mPa·s
- viscosity (318.15 K, 100 kPa): 40 ± 3.1 mPa·s
SMILES: OC1CCCCCCC1

- viscosity (298.15 K, 101 kPa): 0.6412 ± 0.014 mPa·s
- viscosity (303.15 K, 101 kPa): 0.5825 ± 0.013 mPa·s
- viscosity (308.15 K, 101 kPa): 0.5323 ± 0.011 mPa·s
- viscosity (313.15 K, 101 kPa): 0.4915 ± 0.01 mPa·s
- viscosity (318.15 K, 101 kPa): 0.4586 ± 0.0098 mPa·s
SMILES: C=C(C)C(=O)OCC

SMILES: N#CCc1ccccc1
- viscosity (298.15 K, 101 kPa): 1.868 ± 0.045 mPa·s

- viscosity (293.15 K, 101.32 kPa): 2.29 ± 0.018 mPa·s
- viscosity (298.15 K, 101.3 kPa): 2.012 ± 0.049 mPa·s
- viscosity (298.15 K, 101.33 kPa): 1.936 ± 0.013 mPa·s
- viscosity (303 K, 101 kPa): 1.49 ± 0.14 mPa·s
- viscosity (303.15 K, 100 kPa): 1.73 ± 0.17 mPa·s
- viscosity (308.15 K, 101.3 kPa): 1.485 ± 0.037 mPa·s
- viscosity (308.15 K, 101.33 kPa): 1.494 ± 0.01 mPa·s
- viscosity (313 K, 101 kPa): 1.13 ± 0.11 mPa·s
- viscosity (313.15 K, 101.3 kPa): 1.322 ± 0.011 mPa·s
- viscosity (313.15 K, 101.33 kPa): 1.427 ± 0.014 mPa·s and 1 ± 0.018 mPa·s
- viscosity (318.15 K, 100 kPa): 1.171 ± 0.12 mPa·s
- viscosity (318.15 K, 101 kPa): 1.228 ± 0.026 mPa·s
- viscosity (323.15 K, 100 kPa): 0.995 ± 0.041 mPa·s
SMILES: CC(C)O
- viscosity (303.15 K, 101.33 kPa): 1.878 ± 0.019 mPa·s and 1.731 ± 0.011 mPa·s and 1.4 ± 0.024 mPa·s
- viscosity (308.15 K, 100 kPa): 1.579 ± 0.048 mPa·s and 1.49 ± 0.15 mPa·s
- viscosity (313.15 K, 101 kPa): 1.319 ± 0.033 mPa·s and 1.281 ± 0.06 mPa·s and 1.4 ± 0.03 mPa·s
- viscosity (323.15 K, 101 kPa): 1.063 ± 0.027 mPa·s and 1.083 ± 0.023 mPa·s
- viscosity (323.15 K, 101.33 kPa): 1.105 ± 0.011 mPa·s and 1.056 ± 0.064 mPa·s

SMILES: CCCCCCCCCBr
- viscosity (297.75 K, 101 kPa): 1.922 ± 0.042 mPa·s
- viscosity (303.55 K, 101 kPa): 1.721 ± 0.037 mPa·s
- viscosity (313.65 K, 101 kPa): 1.458 ± 0.032 mPa·s

- viscosity (298.15 K, 101.33 kPa): 0.503 ± 0.005 mPa·s
- viscosity (308.15 K, 101.33 kPa): 0.444 ± 0.005 mPa·s
- viscosity (318.15 K, 101.33 kPa): 0.386 ± 0.004 mPa·s
SMILES: CCCNCCC
- viscosity (298.15 K, 100 kPa): 0.504 ± 0.1 mPa·s and 0.5042 ± 0.15 mPa·s (2×)
- viscosity (303.15 K, 100 kPa): 0.471 ± 0.1 mPa·s and 0.4706 ± 0.15 mPa·s (2×)
- viscosity (308.15 K, 100 kPa): 0.444 ± 0.1 mPa·s and 0.4444 ± 0.15 mPa·s (2×)

SMILES: CC(=O)[O-].CCCC[NH2+]CCO
- viscosity (293.15 K, 101 kPa): 1412 ± 70 mPa·s
- viscosity (298.15 K, 101 kPa): 921.1 ± 41 mPa·s
- viscosity (303.15 K, 101 kPa): 616.9 ± 24 mPa·s
- viscosity (308.15 K, 101 kPa): 423.3 ± 15 mPa·s
- viscosity (313.15 K, 101 kPa): 297 ± 9.3 mPa·s
- viscosity (318.15 K, 101 kPa): 212.7 ± 6 mPa·s
- viscosity (323.15 K, 101 kPa): 155.3 ± 4 mPa·s

- viscosity (298.15 K, 100 kPa): 4.861 ± 0.1 mPa·s
- viscosity (323.15 K, 100 kPa): 2.156 ± 0.046 mPa·s
SMILES: OCC(F)(F)C(F)F

SMILES: CCCCCCCCn1cc[n+](C)c1.O=S(=O)([N-]S(=O)(=O)C(F)(F)F)C(F)(F)F
- viscosity (308.15 K, 100 kPa): 56.43 ± 2.3 mPa·s

SMILES: C1=CCCCC1
- viscosity (303.15 K, 101 kPa): 0.573 ± 0.007 mPa·s

From the CheMixHub viscosity set
